Measured values taken from patent US10376557B2, “Peptide fragments for inducing synthesis of extracellular matrix proteins” (HELIX BIOMEDIX, INC., priority 2006, dated 2019).
Ends that are not written are not given here.

Test system: Human dermal fibroblasts
Test: SIRCOL collagen assay: soluble collagen released by dermal fibroblasts incubated with peptides
Assay type: cell-based
Conditions: for Collagen (μg) / Collagen: * = may not be significant, detection limit 2.5 μg; for Increase in collagen release at 48 h v. 24 h / Significant release of collagen at 24 h and 48 h / Decrease in collagen release at 48 h v. 24 h: check mark = yes; for Significant release of collagen at 24 h and 48 h: 25 μg/mL considered significant
Description: Several sequences identified in Examples 1 and 2 were synthesized using standard peptide chemistry and assayed for the stimulation of collagen from dermal fibroblasts. The synthesized peptides were amidated at the C-terminus, which rendered the tetrapeptides less susceptible to protease degradation and increased their solubility compared to the free acid forms. Human dermal fibroblasts were incubated in 96-well plates at 37° C. and 5% CO2 for 24 and 48 hours in 150 μL complete cell culture media (Cascade Biologics, Portland, Oreg.; Cat. No. M-106-500), supplemented with Low Serum Growth Supplement (Cascade Biologics, Portland, Oreg.; Cat. No. […] Each well was seeded with 10,000 cells. Following the incubation, 100-μL medium samples were recovered from each well and assayed for collagen production
The assays were performed by Tebu-bio Laboratories (France) using the SIRCOL™ Collagen Assay Kit (Biocolor Assays, UK) following the manufacturer's protocol. The SIRCOL™ Collagen Assay is a quantitative dye-binding method designed for the analysis of soluble collagens released into culture medium by mammalian cells during in vitro culture. The collagen of the tested samples binds to the anionic SIRCOL™ dye. The collagen-dye complexes precipitate out of solution and are pelleted by centrifugation. The recovered collagen-dye pellet was dissolved in an alkaline solution prior to absorbance measurements. Duplicate measurements were taken at the 24 and 48 hour times from two separate samples. The four measurements for each sample were averaged. The absorbance of reagent blanks, collagen standards, and samples were measured at 560 nm. The reagent blank absorbance was subtracted from the absorbance from each sample at 24 and 48 hours.
Two separate data sets were used to generate two collagen standard calibration curves. The first calibration curve was generated for purposes of calculating the quantity of collagen in samples H6 (combination of SEQ ID NOs:1-4), […] (SEQ ID NOs:1-8, respectively) and H15 (combination of SEQ ID NOs:5-8). The second calibration curve was generated for calculating the quantity of collagen in samples H16 (SEQ ID NO:9), H21-23 (SEQ ID NOs:10-12, respectively), H25-26 (SEQ ID NOs:13-14, respectively), or H29-30 (SEQ ID NOs:15-16, respectively), H32 (SEQ ID NO:17), H33 (combination of SEQ ID NOs:9-12), H34 (combination of SEQ ID NOs:11-14), H35 (combination of SEQ ID NOs:13-16), H36 (combination of SEQ ID NOs:1, 6, 5, 8), H37 (SEQ ID NO: 17) and H38 (SEQ ID NO:8) from the absorbance measurements was created by plotting the Abs560nm of the known collagen standards versus the respective concentrations of the collagen standards (in micrograms) each time a series of assays were performed. With respect to each data set, the same calibration curve was used for samples taken at the 24 and 48 hour times (Tables 2A and 2B). Accordingly, different standard curves were prepared immediately prior to performing each series of assays.
A linear regression was performed from plotting the Abs560nm values versus concentrations of the respective collagen standards using MICROSOFT EXCEL™. […] As the results were identical, only the 24-hour time period was used for the second series calibration curves. The formula of the line obtained on assay date 1 and assay date 2 of the second series of samples was y=0.0178x and y=0.0162x, respectively. The peptide LL-37 (SEQ ID NO:18) was used as a positive control as it has been widely reported to have an impact upon wound healing in man (Heilborn et al., The Cathelicidin Anti-Microbial Peptide LL-37 Is Involved In The Re-Epithelialization Of Human Skin Wounds And Is Lacking In Chronic Ulcer Epithelium, J. Invest. Dermato. 120:379-89 (2003). The assay detection limit defined by the manufacturer is 2.5 μg. […]

[1] = 24 hours, peptide 50 μg/mL, 100 μL medium sample
[2] = 48 hours, peptide 50 μg/mL, 100 μL medium sample
[3] = peptide 0.3 μg/mL (per Table 5)
[4] = 24 hours, peptide 0.3 μg/mL, second series
[5] = 48 hours, peptide 0.3 μg/mL, second series
[6] = 24 hours, peptide 50 μg/mL, second series
[7] = 48 hours, peptide 50 μg/mL, second series

Row | Substance | Released collagen (μg/mL) 24 h (peptide 50 μg/mL (per Table 5)) [µg/mL] | Average (A560 nm) (24 hours, peptide 50 μg/mL) | Average minus blank (A560 nm) (24 hours, peptide 50 μg/mL) | Collagen (μg) [1] | Collagen produced (μg/mL) 24 hrs ([Peptide] 50 μg/mL) [µg/mL] | Released collagen (μg/mL) 48 h (peptide 50 μg/mL (per Table 5)) [µg/mL] | Average (A560 nm) (48 hours, peptide 50 μg/mL) | Average minus blank (A560 nm) (48 hours, peptide 50 μg/mL) | Collagen produced (μg/mL) 48 hrs ([Peptide] 50 μg/mL) [µg/mL] | Increase in collagen release at 48 h v. 24 h (peptide 50 μg/mL) | Collagen (μg) [2] | Decrease in collagen release at 48 h v. 24 h (peptide 50 μg/mL) | Average (A560 nm) [6] | Average minus blank (A560 nm) [6] | Average (A560 nm) [7] | Average minus blank (A560 nm) [7] | Collagen (μg) [7] | also measured
1 | GAGP (Synthetic Peptide H12) | 2 | 0.08 | 0.00 | 0.2* μg | 2 | 37 | 0.17 | 0.05 | 37 | ✓ |  |  |  |  |  |  |  | collagen production at 48 hours (in words) (48 hours): good results; Collagen [2]: 3.7 µg
2 | GEKG (Synthetic Peptide H14) [H14 = tested at 50 μg/mL, H38 = same peptide tested at 0.3 μg/mL] | 30 | 0.12 | 0.04 |  | 30 | 26 | 0.15 | 0.03 | 26 |  |  |  |  |  |  |  |  | time for which collagen production was substantially maintained: at least 48 hours; collagen stimulation at the lower concentration (in words) (0.3 μg/mL versus 50 μg/mL): not diminished; collagen production compared to KTTKS (24 and 48 hours): stimulated more collagen production than the KTTKS; Released collagen (μg/mL) 24 h [3]: 29 µg/mL; amount of collagen induced compared to LL37 (24 hours): about the same amount of collagen as LL37; Average (A560 nm) [4]: 0.13; Average minus blank (A560 nm) [4]: 0.05; Collagen [4]: 2.9 µg; Collagen [1]: 3.0 µg; Collagen produced (μg/mL) 24 hrs ([Peptide] 0.3 μg/mL): 29 µg/mL; Released collagen (μg/mL) 48 h [3]: 28 µg/mL; Average (A560 nm) [5]: 0.11; Average minus blank (A560 nm) [5]: 0.05; Collagen [5]: 2.8 µg; Collagen [2]: 2.6 µg; Collagen produced (μg/mL) 48 hrs ([Peptide] 0.3 μg/mL): 28 µg/mL; Significant release of collagen at 24 h and 48 h (peptide 0.3 μg/mL): ✓; Significant release of collagen at 24 h and 48 h (peptide 50 μg/mL): ✓; maximal stimulating concentration (collagen production): ≤ 0.3 µg/mL
3 | GFPG (Synthetic Peptide H8) | 15 | 0.10 | 0.02 | 1.5* μg | 15 | 9 | 0.13 | 0.01 | 9 |  | 0.9* μg |  |  |  |  |  |  | 
4 | GPPG (Synthetic Peptide H13) | 18 | 0.10 | 0.02 | 1.8* μg | 18 | 2 | 0.12 | 0.00 | 2 |  | 0.2* μg |  |  |  |  |  |  | 
5 | GSPG (Synthetic Peptide H9) | 35 | 0.13 | 0.05 |  | 35 | 0 | 0.09 | 0.00 | 0 |  | 0.0* μg | ✓ |  |  |  |  |  | Collagen [1]: 3.5 µg
6 | KTTKS [H32, reference compound] |  |  |  |  |  | 12 |  |  | 12 |  |  |  | 0.07 | −0.01 | 0.08 | 0.02 | 1.2* μg | Released collagen (μg/mL) 24 h [3]: 11 µg/mL; Average (A560 nm) [4]: 0.10; Average minus blank (A560 nm) [4]: 0.02; Collagen (μg) [4]: 1.1* μg; Collagen (μg) [6]: −0.5* μg; Collagen produced (μg/mL) 24 hrs ([Peptide] 0.3 μg/mL): 11 µg/mL; Released collagen (μg/mL) 48 h [3]: 22 µg/mL; Average (A560 nm) [5]: 0.10; Average minus blank (A560 nm) [5]: 0.04; Collagen (μg) [5]: 2.2* μg; Collagen produced (μg/mL) 48 hrs ([Peptide] 0.3 μg/mL): 22 µg/mL; Increase in collagen release at 48 h v. 24 h (peptide 0.3 μg/mL): ✓
7 | PEGP (PEGP-NH2) [H7] | 0 | 0.08 | 0.00 | 0.0* μg | 0 | 54 | 0.19 | 0.07 | 54 | ✓ |  |  |  |  |  |  |  | Collagen [2]: 5.4 µg
8 | PEKP (PEKP-NH2) [H16] | 31 |  |  |  | 31 | 3 |  |  | 3 |  |  | ✓ | 0.14 | 0.06 | 0.06 | 0.00 | 0.3* μg | Collagen [6]: 3.1 µg
9 | PGNP (PGNP-NH2) [H30] | 9 |  |  |  | 9 | 20 |  |  | 20 | ✓ |  |  | 0.10 | 0.02 | 0.09 | 0.03 | 2.0* μg | Collagen (μg) [6]: 0.9* μg
10 | PGPR (Synthetic Peptide H10) | 34 | 0.12 | 0.04 |  | 34 | 0 | 0.11 | 0.00 | 0 |  | 0.0* μg | ✓ |  |  |  |  |  | Collagen [1]: 3.4 µg
11 | PGQP (PGQP-NH2) [H22] | 33 |  |  |  | 33 | 21 |  |  | 21 |  |  | ✓ | 0.14 | 0.06 | 0.09 | 0.03 | 2.1* μg | Collagen [6]: 3.3 µg
12 | PGTP (PGTP-NH2) [H23] | 1 |  |  |  | 1 | 17 |  |  | 17 | ✓ |  |  | 0.08 | 0.00 | 0.09 | 0.03 | 1.7* μg | Collagen (μg) [6]: 0.1* μg
